# From patent US8772250B2, “Compositions and methods for treating ischemia and ischemia-reperfusion injury” (Ischemix, LLC, priority 2010, dated 2014)
# Marks after values point to notes of the source that are not given here.
# Assays:
# [1] = system: RIP-deficient Jurkat cells; assay: Cell survival assay, TNFα-induced apoptosis; assay type: cell-based, human; conditions: for % Survival: 10 ng/mL TNFα, 24 h
# Experimental: The ability of RLip-EA-OH to prevent apoptosis and promote cell survival was assessed using Jurkat cells deficient in Receptor-Interacting Protein (RIP), a cell death mediating protein. The Jurkat cell line is derived from human T-Lymphocytes. RIP-deficient Jurkat cells are susceptible to apoptosis when treated with tumor necrosis factor alpha (TNFα). These cells were treated with either vehicle or RLip-EA-OH and then apoptosis was triggered with TNFα. Cell survival was assessed to evaluate if RLip-EA-OH protected the cells against TNFα induced apoptosis.
# RIP-deficient Jurkat cells were seeded into 96 well plates at 20,000 cells per well and treated for 2 hours with RLip-EA-OH (6 wells for each concentration) or DMSO. After pretreatment, 3 wells for each dose of drug were exposed to 10 ng/mL human recombinant TNFα (TNFα was not added to the other 3 wells). Twenty four hours after TNFα treatment, ATP cell viability was determined (CellTiter-Glo, Promega) and the values were used to calculate % survival of the cells.
# [2] = molecular target: T1, insulin receptor kinase (Homo sapiens, UniProt P06213); assay: IRK activation assay (mobility shift kinase assay); assay type: biochemical
# T1 construct: insulin receptor kinase domain (Millipore catalog #14-466, 80 nM); purchased Millipore 14-466
# T1 sequence (P06213 1023-1298 limits assumed): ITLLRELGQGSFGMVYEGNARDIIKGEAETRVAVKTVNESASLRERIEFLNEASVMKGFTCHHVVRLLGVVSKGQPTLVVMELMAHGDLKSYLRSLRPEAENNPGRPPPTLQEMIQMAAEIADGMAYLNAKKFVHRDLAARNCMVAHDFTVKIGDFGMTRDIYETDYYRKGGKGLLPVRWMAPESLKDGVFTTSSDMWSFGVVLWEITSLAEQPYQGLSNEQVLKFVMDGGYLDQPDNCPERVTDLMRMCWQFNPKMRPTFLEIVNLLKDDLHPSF
# Text: Insulin receptor kinase activity was readily measured by a mobility shift assay using a Caliper LabChip® 3000 and a 12-sipper LabChip® to detect both phosphorylated and unphosphorylated substrate (Caliper Life Sciences, Discovery Alliances and Services Division, Hanover, Md.). The mobility-shift kinase assay uses a micro fluidic chip to measure the conversion of a fluorescent peptide substrate to a phosphorylated product. The reaction mixture from a microtiter plate well was introduced through a capillary sipper onto the chip and the nonphosphorylated substrate and phosphorylated product were separated by electrophoresis and detected via laser-induced fluorescence. […] The catalytic subunits of tyrosine kinases have endogenous levels of activity in the presence of ATP and substrate, thus the results are presented as a % of control.
# Specifically, each test compound was diluted to 25 times its assay concentration with 100% DMSO and added to 12 μL of an assay buffer solution (100 mM HEPES, 10 mM MnCl2, 5 mM B-GP, and 0.002% Brij) containing dithiotheritol (DTT, 2 mM) and insulin receptor kinase domain (Millipore catalog #14-466, 80 nM) prior to pre-incubation at room temperature for 15 minutes. […] The samples were placed on the LabChip 3000 to measure the amount of parent substrate and phosphorylated product. […]
# [3] = system: Akt; assay: Immunohistochemistry assay for phosphorylated Akt in H9c2 cells; assay type: cell-based, rat; conditions: 50 μM, 3 hours, vs vehicle
# Experimental: The ability of RLip-EA-OH to increase phosphorylated Akt was assayed in H9c2 cells by immunocytochemistry followed by visualization using microscopy. H9c2 cells are a cell line derived from rat cardiac myocytes and can be manipulated to increase or decrease the level of phosphoryated Akt. Cells were inoculated onto culture plates and allowed to adhere to the bottom, treated, fixed, and permeabilized. Following permeabilization, cells were treated initially with specific phospho-Akt antibodies followed by fluorescent secondary antibodies to quantify the amount of bound primary antibody.
# H9c2 cells were plated in 12 well cell culture treated plates at 70% confluence. Cells were incubated overnight to allow cell attachment. The media was changed to low serum (0.5%, fetal bovine serum [FBS]) and cells incubated for another 48 hours. Cells were treated for 3 hours with either vehicle, RLip-EA-OH (50 μM), or co-treatment with LY294002 (25 μM), fixed with 3.7% formaldehyde in phosphate buffered saline and permeabilized with 0.5% Triton X-100 in phosphate buffered saline. After permeabilization, the cells were treated with antibody specific for Akt phosphorylated at threonine-308, followed by treatment with a fluorescent labeled secondary antibody.
# [4] = Oxygen Radical Absorbance Capacity (ORAC) assay; conditions: mean of 3-4 experiments
# Text: Peroxyl radicals are one species of reactive oxygen produced by cells during reperfusion. The presence of peroxyl radicals can be detected by fluorescein oxidation. In the presence of peroxyl radicals, fluorescein fluorescence will decay over time. In the presence of an oxygen radical scavenger, the rate of decay is diminished. The change in the rate of decay between control and in the presence of scavengers is used to measure the peroxyl radical scavenging ability of a test compound.
# Each compound tested was diluted to a concentration ranging from 25 μM to 250 μM in 10 mM phosphate buffer (pH=7.4) containing 10 nM fluorescein. The buffer and compound were incubated at 37° C. for 10 minutes. After the incubation, flourescein fluorescence was measured using a plate reader (Molecular Devices Flexstation II, Ex=485, Em=520). Baseline fluorescence measurements were recorded for 15 minutes before 2,2′-azobis(2-methylpropionamidine) dihydrochloride (AAPH) was added. The fluorescence decay was recorded for 90 minutes. The fluorescence decay without compound was subtracted from the fluorescence decay with compound. The slope of the decay vs. concentration is reported as the absorbance capacity.
# [5] = system: myocardial ischemia-reperfusion injury; assay: Rat model of myocardial I/R injury (MI/AR ratio); assay type: in vivo; conditions: for % Reduction in MI/AR Compared to Vehicle: rat IV
smiles,measurement,setting,value
"C[C@H](NC(=O)[C@H](CCC(=O)O)NC(=O)CCCC[C@@H]1CCSS1)C(=O)O [RLip-EA-OH, N-(R)-lipoyl-L-glutamyl-L- alanine]",% Survival,[1]; 0.006 μM,84%
same,% Survival,[1]; 0.012 μM,95%
same,% Survival,[1]; 0.05 μM,96%
same,% Survival,[1]; 0.1 μM,98%
same,% Survival,[1]; 0.2 μM,101%
same,% Survival,[1]; 1.5 μM,106%
same,effect on TNFα induced cell death,[1]; RIP-deficient Jurkat cells,prevented TNFα induced cell death in a dose dependent manner
same,AVG % activity above control (±SEM),[2]; 100 μM,78 ± 15%
same,IRK % Increase in activity above vehicle control,[2]; 300 μM,77 ± 7%
same,fluorescence intensity (Akt phosphorylated at threonine-308),[3],much brighter
same,ORAC Value relative to RLip-EA-OH,[4],100 ± 11
same,ORAC Value relative to RLip-OH,[4],131 ± 6^
same,efficacy in a rat model of I/R injury,"[5]; intravenously (bolus IV and infusion), orally and intra-cardiac",efficacious
same,% Reduction in MI/AR Compared to Vehicle,[5]; Entry 1: 1 mg/kg at −0.25 h,3%
same,% Reduction in MI/AR Compared to Vehicle,[5]; Entry 2a: 3 mg/kg (bolus) at −0.25 h,6%
same,% Reduction in MI/AR Compared to Vehicle,[5]; Entry 3a: 5 mg/kg (bolus) at −0.25 h,27* %
same,% Reduction in MI/AR Compared to Vehicle,[5]; Entry 3b: 5 mg/kg (1 h infusion) at −1 h,27* %
same,% Reduction in MI/AR Compared to Vehicle,[5]; Entry 4a: 10 mg/kg (bolus) at −0.25 h,33* %
same,% Reduction in MI/AR Compared to Vehicle,[5]; Entry 4b: 10 mg/kg (1 h infusion),33* %
same,% Reduction in MI/AR Compared to Vehicle,[5]; Entry 6: 20 mg/kg at −0.25 h,9%
same,% Reduction in MI/AR Compared to Vehicle,[5]; Entry 8: 10 mg/kg at −6 h,24* %
same,% Reduction in MI/AR Compared to Vehicle,[5]; Entry 9: 10 mg/kg at −24 h,24* %
same,% Reduction in MI/AR Compared to Vehicle,[5]; Entry 10: 20 mg/kg at −3 h,26* %
same,% Reduction in MI/AR Compared to Vehicle,[5]; Entry 11: 40 mg/kg at −3 h,17%
same,% Reduction in MI/AR Compared to Vehicle,[5]; Entry 14: 10 and 10 mg/kg at −24 and −3 h,32* %
same,% Reduction in MI/AR Compared to Vehicle,[5]; Entry 15: 10 and 10 and 10 mg/kg at −24 and −3 and −0.25 h,42* %
same,% Reduction in MI/AR Compared to Vehicle,[5]; Entry 17: 10 and 10 mg/kg at −3 h and at reperfusion,34* %
same,reduction of myocardial tissue death vs saline vehicle,"[5]; rat, 1 mg/kg IC, 15 minutes pre-occlusion",38%
same,Reduction of MI:AR Ratio Relative to Vehicle (%),"[5]; rat, 1 mg/kg IC, Table 7 meta analysis",31 ± 3 %
same,Reduction of MI:AR Ratio Relative to Vehicle (%),"[5]; rat, 1 mg/kg IC, Table 8",31 ± 3 %
same,reduction of myocardial tissue death vs saline vehicle,"[5]; rat, 1 mg/kg IC, at reperfusion (within 1 minute after reperfusion)",32%
same,reduction of myocardial tissue death vs saline vehicle,"[5]; rat, 1 mg/kg IC, during occlusion (15 minutes after occluding)",24%
same,MI:AR ratio,"[5]; rat, 1 mg/kg IC, meta analysis n=64",0.250
same,reduction of MI/AR vs saline vehicle,"[5]; rat, 1 mg/kg IC, meta analysis n=64 vs n=54, p<0.001",33%
same,MI/AR,"[5]; rat, 1 mg/kg single bolus IC 15 minutes prior to ischemia",0.337
same,MI/AR,"[5]; rat, 2 mg/kg single bolus IC 15 minutes prior to ischemia",0.290
same,MI/AR (meta-analysis),"[5]; rat, B—Single (10_0)",0.261
same,MI/AR (meta-analysis),"[5]; rat, C—Multiple (10_10)",0.207
same,effect of different doses on myocardial tissue death (MI/AR),"[5]; rat, IV or IC, 15 minutes pre-occlusion",significantly (p<0.05) reduced myocardial tissue death and was dose dependent
same,% Reduction in MI/AR compared to vehicle controls,"[5]; rat, Table 11: 10 mg/kg at −0.25 h",28%
same,% Reduction in MI/AR compared to vehicle controls,"[5]; rat, Table 11: 10 and 10 mg/kg at −3 and −0.25 h",43* %
same,reduction in MI damage,"[5]; rat, single 10 mg/kg IV bolus 15 min before ischemia or at 3 h before ischemia",~33%
same,reduction of MI (meta-analysis),"[5]; rat, single bolus dose 10 mg/kg at −3 h",29%
